Test results from PMC9081329, “Pharmacokinetics, Mass Balance, Excretion, and Tissue Distribution of Plasmalogen Precursor PPI-1011” (Frontiers in Cell and Developmental Biology, 2022).

Experiment: Single dose tissue distribution study (QWBA, LSC of blood and plasma)
Format: in vivo, Sprague-Dawley rats
Procedure: Six male rats were administered a single oral dose of [^14C]PPI-1011 at 100 mg/kg (200 μCi/kg) and one rat was sacrificed at each of the following time points after the administration of the dose: 8, 12, 18, 24, 48, or 168 h. Terminal blood was collected by cardiac puncture directly into tubes with K2EDTA, an aliquot was stored at 4°C until LSC was performed for radioactivity, while the remaining blood was processed to plasma and stored at −20°C until LSC. Following blood collection, the carcasses were frozen in a cold bath with hexanes and dry ice for at least 8 min and then dried and stored at −70°C for at least 5 h. The carcasses were transferred to a −20°C freezer for at least 12 h before embedding.
QWBA was used to determine radioactivity concentrations in the caecum (contents and mucosa), large intestine (contents and mucosa), small intestine (contents and mucosa), stomach (contents and mucosa), brain, choroid plexus, spinal cord, bone, skin, adrenal gland, pineal body, pituitary gland, thyroid gland, liver, kidney (cortex, medulla and whole kidney), urinary bladder (contents and wall), brown fat, white fat, eye (lens, uveal tract and whole eye), epididymis, prostate gland, testis, ovary, uterus, lung, exorbital lachrymal gland, Harderian gland, pancreas, salivary gland, skeletal muscle, myocardium, cardiac blood, bone marrow, lymph node, spleen, and thymus. As well, LSC was used to determine the total radioactivity in the whole blood and plasma.
The whole-body cryosectioning technique described by ([Ullberg, 1977]) was the basis for embedding and cryosectioning the rats assigned to this study. Each frozen carcass was shaved, and then the limbs and tail were removed prior to embedding. Chilled (4°C) 3% CMC (low viscosity) was utilized to provide a firm support of reinforced ice around each rat and for a secure attachment to the microtome stage. Upon thorough freezing of the embedding medium surrounding each rat, the frozen CMC block was removed from the freezing bath and four 3/8 inch holes were drilled into the block. One cryosection quality control standard (CQCS) was prepared with a known amount of radioactivity and at least 1 ml aliquots were added to each of the four drilled holes. CQCS data were utilized to evaluate the overall performance of the QWBA assay.
Each frozen rat was sagittally trimmed (50–100 μm) at −20°C until exposure of a few target tissues employing a Leica Cryomacrocut heavy-duty microtome (Leica Microsystems Inc.,). Disposable stainless steel Feather type H45L knives (Feather Safety Razor Co., Ltd.) were utilized for trimming and sectioning each frozen rat. Several thinner sections (50 μm) were discarded prior to obtaining multiple 50 μm sections at various cryosectioning levels for QWBA analysis. Upon the collection of at least 60 target tissues in multiple cryosectioning levels, the cryosections were kept in the Cryomacrocut cryochamber for a minimum of 18 h for dehydration depending upon the number of cryosections within the cryochamber. After dehydration was complete, the cryosections were transferred to ambient temperature for processing. Mounted whole-body cryosections and a set of 15 standards were sandwiched between a standard phosphor screen and an exposure cassette. All cryosections were exposed to the phosphor screen for 4-days in a cabinet protected with lead prior to scanning using a Typhoon PhosphorImager (Cytiva). MCID™ Analysis software (InterFocus Ltd.) was utilized to generate a calibration curve of the STD nominal concentrations (nCi/g) versus PhosphorImager response (counts/μm^2 minus background) by weighted (1/x) linear regression analysis ([Potchoiba et al., 1995]; [Potchoiba et al., 1998]). The linear regression curve was then utilized to determine the concentration (nCi/g) of total radioactivity in whole-body tissues and blood. Radioactivity concentrations were expressed as μg Eq/g based on the specific activity of the compound in the final dose formulations. […]

[1] = 12 h post single oral 100 mg/kg
[2] = 18 h post single oral 100 mg/kg
[3] = 24 h post single oral 100 mg/kg

CC/C=C\C/C=C\C/C=C\C/C=C\C/C=C\C/C=C\CCC(=O)O[C@H](CO[14CH2]CCCCCCCCCCCCCCC)COC(=O)CCCCC1CCSS1 (stereo partly shown) [[^14C]PPI-1011]
Radioactivity concentration, Olfactory Bulb [1]: 2.01 μg equivalents/g
Radioactivity concentration, Pancreas [1]: 52.7 μg equivalents/g
Radioactivity concentration, Parotid Gland [1]: 30.4 μg equivalents/g
Radioactivity concentration, Pineal Gland [1]: 12.1 μg equivalents/g
Radioactivity concentration, Pituitary Gland [1]: 21.2 μg equivalents/g
Radioactivity concentration, Preputial Gland [1]: 214 μg equivalents/g
Radioactivity concentration, Prostate [1]: 11.8 μg equivalents/g
Radioactivity concentration, Renal Cortex [1]: 46.6 μg equivalents/g
Radioactivity concentration, Renal Medulla [1]: 53.2 μg equivalents/g
Radioactivity concentration, Salivary Gland [1]: 31.4 μg equivalents/g
Radioactivity concentration, Seminal Vesicles [1]: 2.99 μg equivalents/g
Radioactivity concentration, Skin - Non-Pigmented [1]: 18.0 μg equivalents/g
Radioactivity concentration, Small Intestines [1]: 347 μg equivalents/g
Radioactivity concentration, Spinal Cord [1]: 2.76 μg equivalents/g
Radioactivity concentration, Spleen [1]: 111 μg equivalents/g
Radioactivity concentration, Stomach [1]: 22.9 μg equivalents/g
Radioactivity concentration, Testis [1]: 4.12 μg equivalents/g
Radioactivity concentration, Thalamus [1]: 2.31 μg equivalents/g
Radioactivity concentration, Thymus [1]: 12.2 μg equivalents/g
Radioactivity concentration, Thyroid [1]: 43.1 μg equivalents/g
Radioactivity concentration, Whole Brain [1]: 2.48 μg equivalents/g
Radioactivity concentration, Adipose - Brown [2]: 66.0 μg equivalents/g
Radioactivity concentration, Adipose - Brown (Vessel Wall) [2]: 94.2 μg equivalents/g
Radioactivity concentration, Adipose - Subcutaneous [2]: 73.9 μg equivalents/g
Radioactivity concentration, Adipose - Visceral [2]: 75.6 μg equivalents/g
Radioactivity concentration, Adrenal Gland [2]: 185 μg equivalents/g
Radioactivity concentration, Bladder Wall [2]: 14.5 μg equivalents/g
Radioactivity concentration, Blood - QWBA [2]: 9.62 μg equivalents/g
Radioactivity concentration, Bone Marrow [2]: 22.3 μg equivalents/g
Radioactivity concentration, Bone Surface [2]: 1.25 μg equivalents/g
Radioactivity concentration, Cecum [2]: 177 μg equivalents/g
Radioactivity concentration, Cerebellum [2]: 3.03 μg equivalents/g
Radioactivity concentration, Cerebrum [2]: 2.49 μg equivalents/g
Radioactivity concentration, Choroid Plexus [2]: 12.8 μg equivalents/g
Radioactivity concentration, Colliculus [2]: 2.94 μg equivalents/g
Radioactivity concentration, Diaphragm [2]: 40.4 μg equivalents/g
Radioactivity concentration, Epididymis [2]: 67.7 μg equivalents/g
Radioactivity concentration, Esophagus [2]: 15.0 μg equivalents/g
Radioactivity concentration, Exorbital Lacrimal Gland [2]: 8.74 μg equivalents/g
Radioactivity concentration, Gastric Mucosa [2]: 70.1 μg equivalents/g
Radioactivity concentration, Harderian Gland [2]: 14.7 μg equivalents/g
Radioactivity concentration, Intra-Orbital Lacrimal Gland [2]: 8.91 μg equivalents/g
Radioactivity concentration, Kidney [2]: 36.1 μg equivalents/g
Radioactivity concentration, Large Intestines [2]: 154 μg equivalents/g
Radioactivity concentration, Liver [2]: 121 μg equivalents/g
Radioactivity concentration, Lung [2]: 45.4 μg equivalents/g
Radioactivity concentration, Lymph Node [2]: 22.5 μg equivalents/g
Radioactivity concentration, Medulla Oblongata [2]: 2.23 μg equivalents/g
Radioactivity concentration, Muscle [2]: 9.63 μg equivalents/g
Radioactivity concentration, Myocardium [2]: 42.4 μg equivalents/g
Radioactivity concentration, Nasal Turbinates [2]: 6.43 μg equivalents/g
Radioactivity concentration, Ocular - Uveal Tract [2]: 5.32 μg equivalents/g
Radioactivity concentration, Ocular - Whole Eye [2]: 1.65 μg equivalents/g
Radioactivity concentration, Olfactory Bulb [2]: 1.75 μg equivalents/g
Radioactivity concentration, Pancreas [2]: 39.8 μg equivalents/g
Radioactivity concentration, Parotid Gland [2]: 35.2 μg equivalents/g
Radioactivity concentration, Pineal Gland [2]: 16.2 μg equivalents/g
Radioactivity concentration, Pituitary Gland [2]: 22.0 μg equivalents/g
Radioactivity concentration, Preputial Gland [2]: 78.0 μg equivalents/g
Radioactivity concentration, Prostate [2]: 28.0 μg equivalents/g
Radioactivity concentration, Renal Cortex [2]: 38.1 μg equivalents/g
Radioactivity concentration, Renal Medulla [2]: 23.0 μg equivalents/g
Radioactivity concentration, Salivary Gland [2]: 28.8 μg equivalents/g
Radioactivity concentration, Skin - Non-Pigmented [2]: 12.0 μg equivalents/g
Radioactivity concentration, Small Intestines [2]: 239 μg equivalents/g
Radioactivity concentration, Spinal Cord [2]: 3.20 μg equivalents/g
Radioactivity concentration, Spleen [2]: 71.3 μg equivalents/g
Radioactivity concentration, Stomach [2]: 21.6 μg equivalents/g
Radioactivity concentration, Testis [2]: 5.09 μg equivalents/g
Radioactivity concentration, Thalamus [2]: 2.20 μg equivalents/g
Radioactivity concentration, Thymus [2]: 11.8 μg equivalents/g
Radioactivity concentration, Thyroid [2]: 38.5 μg equivalents/g
Radioactivity concentration, Whole Brain [2]: 2.70 μg equivalents/g
Radioactivity concentration, Adipose - Brown [3]: 133 μg equivalents/g
Radioactivity concentration, Adipose - Brown (Vessel Wall) [3]: 110 μg equivalents/g
Radioactivity concentration, Adipose - Subcutaneous [3]: 70.1 μg equivalents/g
Radioactivity concentration, Adipose - Visceral [3]: 71.6 μg equivalents/g
Radioactivity concentration, Adrenal Gland [3]: 155 μg equivalents/g
Radioactivity concentration, Bladder Wall [3]: 7.69 μg equivalents/g
Radioactivity concentration, Blood - QWBA [3]: 5.62 μg equivalents/g
Radioactivity concentration, Bone Marrow [3]: 18.3 μg equivalents/g
Radioactivity concentration, Bone Surface [3]: 0.513 μg equivalents/g
Radioactivity concentration, Cecum [3]: 231 μg equivalents/g
Radioactivity concentration, Cerebellum [3]: 2.08 μg equivalents/g
Radioactivity concentration, Cerebrum [3]: 1.61 μg equivalents/g
